Like-named read-outs stand apart in the source and are kept apart here.
Key:
[1] = test system: NLRP3 (IL-1β release from THP-1 cells); experiment: IL-1β detection in IFN-γ differentiated THP-1 cells, LPS induction and ATP, 96 well format; type: cell-based; conditions: Homo sapiens, IFN-γ 25 ng/mL, LPS 50 ng/mL, ATP 5 mM, IL-1β ELISA, read-out: Activity (IC50 class)
Method: (§1) Compounds as provided herein were tested in the following assay. Cell culture medium employed contained RPMI 1640 medium (89%), FBS (10%), Pen/Strep (1%), and 2-mercaptoethanol (0.05 mM). Freezing medium was made up of 90% FBS and 10% DMSO. THP-1 cells were removed from the liquid nitrogen and placed into a 37° C. water bath to thaw, until signs of ice dissipated. The cells were then added to 9 mL of warm cell culture medium and centrifuged for 5 minutes at 1000 rpm. The supernatant was discarded, and the cells were resuspended in new cell culture medium. The THP-1 cells were then split and cultured in the cell culture medium, being passaged every 2-3 days (5×10^5 cells/mL passaged every two days, 3×10^5 cells/mL passaged every three days). Cell density was maintained between 5×10^5-1.5×10^6 viable cells/mL.
To freeze, cells were resuspended with fresh freezing medium, adjusting the cell density to between 3×10^6-10×10^6 cells/mL. The cell suspension was partitioned into 1 mL aliquots per vial, and the vials were transferred to a -80° C. freezer. After one day at -80° C., the cell vials were transferred to liquid nitrogen freezer for storage.
PBST solution was prepared by mixing 3600 mL of water, 400 mL of 10X PBS, and 4 mL of Tween 20. IFN-γ solution was reconstituted with 100 µL of water to obtain a 1 mg/mL solution, which was then diluted with 0.1 % BSA to provide a 100 ng/mL solution. The IFN-γ solution was stored at -20° C. LPS was reconstituted with 1 mL of PBS solution to obtain a 1 mg/mL stock solution, which was further diluted to 50 ng/mL with serum-free medium. The LPS solution was stored at 4° C.
The 96 well plates were then incubated at 37° C. under a humidified atmosphere of 5% CO2 for 24 h.
LPS induction: When IFN-γ treatment was completed, the supernatants were discarded by hand. 100 µL of a 1X solution of LPS in serum-free medium (50 ng/mL) was added. The plates were incubated in a 37° C. incubator under a humidified atmosphere of 5% CO2 for 4 h. Sample compounds were dissolved in DMSO and the compound solutions were dispensed to the wells using a Tecan D300e digital dispenser. The final concentration of DMSO for each well was 0.5%. The plates were then incubated at 37° C. under a humidified atmosphere of 5% CO2 for 1 h. 20 µL of a 6X solution of ATP was added (final concentration per well: 5 mM), and the plates incubated at 37° C. under a humidified atmosphere of 5% CO2 for 1 h. The supernatants were then collected and analyzed using an IL-Iβ detection kit. If needed, the test samples could be stored at -20° C. until analyzed.
Compound dilution: Compound solution source plates (20 µL of a 10 mM solution of each compound was delivered to the specified wells and stored in a nitrogen cabinet until tested.
Coat Elisa plate: The captured antibody (mAb Mt175) was diluted in PBS to a concentration of 2 µg/mL, and then used to coat the ELISA plate (SIGMA-P6366) overnight at 4° C.
The antibody coat was discarded and the plate was washed 4 times with PBST. The plate was blocked by adding 25 µL/well of blocking buffer (LiCor-927-40000) with 0.1% Tween 20, then incubated for 1 h at room temperature. The blocking buffer was then discarded and the plate was washed 4 times with PBST.
One hour before test sample addition, the sample plates were allowed to thaw at room temperature, centrifuged at 1000 rpm for 1 minute, and shaken for 30 seconds. 25 µL/well of the test samples were transferred to the ELISA plate, and the plate was incubated for 2 h at room temperature.
The test samples were discarded and the ELISA plate was washed 4 times with PBST. 15 µL/well of mAb7P10-biotin at 0.5 µg/mL (1:1000) in blocking buffer was then added to the ELISA plate and it was incubated for 1 h at room temperature.
The antibody was discarded and the ELISA plate was washed 4 times with PBST. Then 15 µL/well of streptavidin-HRP diluted 1:1000 in blocking buffer was added to the ELISA plate and it was allowed to incubate for 1 h at room temperature.

[2] = test system: NLRP3 (IL-1β secretion from THP-1 cells); experiment: IL-1β secretion assay in 384-well plates, PMA differentiated THP-1 cells, LPS and nigericin stimulation; type: cell-based; conditions: Homo sapiens
Method: as §1, with “Cell culture medium employed contained RPMI 1640 medium (89%), FBS (10%), Pen/Strep (1%), and 2-mercaptoethanol (0.05 mM).” left out
PMA was dissolved in DMSO to make a stock solution at 5 mg/mL and stored in 10 µl aliquots at -20° C. for single use. PMA is added to normal growth medium. LPS was diluted with 1 mL of water solution to provide a 1 mg/mL stock solution and stored in 15 µl aliquots at -20° C. for single use. Nigericin is diluted in ice cold 100% ethanol to 5 mg/mL (6.7 mM) and stored in 75 µL aliquots at -20° C. for single use. […] The two control conditions used to qualify and normalize test compound dose-response curves were as follows: High Control = 25 ng/mL LPS, 5 µM Nigericin, 0.5% DMSO, Low Control = 25 ng/mL, LPS, 0.5% DMSO.
THP-1 cells were diluted to provide a suspension at a concentration of 1.0×10^6 cells/mL with the total volume of suspension required to enable the desired number of assay plates. The growth media was supplemented with PMA (5 ng/mL final concentration) and the cells were incubated at 37° C. under a humidified atmosphere of 5% CO2 for 40 h.
All media was carefully aspirated from each culture flask. The cells were washed carefully with 1x DPBS. The cells were then briefly digested with trypsin LE for 5 minutes at 23° C. and immediately resuspended in cell growth media. After resuspension, the cells were centrifuged at 1000 rpm for 3 minutes and the supernatant was discarded. The cells were resuspended in DPBS and once again centrifuged at 1000 rpm for 5 minutes. The supernatant was discarded and the cell pellet was resuspended in serum-free media supplemented with LPS (25 ng/mL final concentration) to enable the distribution of 30 K THP-1 cells within 45 µL of media into each well of 384-well PDL-coated plates. The 384-well plates were then incubated at 37° C. under a humidified atmosphere of 5% CO2 for 2 h. Following this period, test compounds were dispensed by Tecan across the desired concentration range with all wells normalized to a final 0.5 % DMSO concentration. The plates were then incubated at 37° C. under a humidified atmosphere of 5% CO2 for 1 h. Following this period, 5 µL of the […] nigericin stock solution was added to each of the appropriate wells and plates were centrifuged at 1000 rpm for 30 seconds. The plates were the immediately reintroduced to the incubator at 37° C. under a humidified atmosphere of 5% CO2 for 2 h. After this time, 35 µL/well of supernatant was collected and transferred into v-bottom plate and centrifuged at 1000 rpm for 1 minute. These supernatant aliquots were analyzed using an IL-Iβ detection kit as described below. If needed, the test samples could be snap frozen and stored at -80° C. until analyzed.
To prepare each ELISA plate, capture antibody (mAb Mt175) was diluted with PBS to a final concentration of 2 µg/mL and then 20 µL of this solution was added to each well of the ELISA plate. Each plate was allowed to incubate overnight at 4° C. The next day, the capture antibody solution was removed and discarded. […] Each ELISA plate was then allowed to incubate for 1 hour at 23° C. After this time, the blocking buffer was removed and discarded. Each ELISA plate was washed 4 times with PBST. During this time, the v-bottomed plates containing the supernatant aliquots from the assay run were centrifuged at 300 g for 5 minutes before transferring 15 µL/well of the supernatant sample to each ELISA plate. […]

[3] = THP-1 cells, PMA 5 ng/mL, LPS 25 ng/mL, nigericin, IL-1β ELISA, 384-well, read-out: Activity

CC(C)c1nn(CC(=O)N[C@H]2C[C@@](C)(O)C2)c(=O)cc1-c1ccccc1 [Example 1, N-(cis-3-hydroxy-3-methylcyclobutyl)-2-(3-isopropyl-6-oxo-4-phenylpyridazin-1(6H)-yl)acetamide]
IC50 [1]: < 10 µM | IC50 [2, 3]: 3.32 µM

CC(C)c1nn(CC(=O)N[C@H]2C[C@@](C)(O)C2)c(=O)cc1-c1cccc(Cl)c1 [Example 2, 2-(4-(3-chlorophenyl)-3-isopropyl-6-oxopyridazin-1(6H)-yl)-N-(cis-3-hydroxy-3-methylcyclobutyl)acetamide]
IC50 [1]: < 10 µM | IC50 [2, 3]: 1.49 µM

CCc1nn(CC(=O)N[C@H]2C[C@@](C)(O)C2)c(=O)cc1-c1ccccc1 [Example 3, 2-(3-Ethyl-6-oxo-4-phenylpyridazin-1(6H)-yl)-N-(cis-3-hydroxy-3-methylcyclobutyl)acetamide]
IC50 [1]: < 10 µM | IC50 [2, 3]: 6.77 µM

CC(C)c1nn(CC(=O)N[C@H]2C[C@@](C)(O)C2)c(=O)cc1-c1ccccc1Cl [Example 4, 2-(4-(2-Chlorophenyl)-3-isopropyl-6-oxopyridazin-1(6H)-yl)-N-(cis-3-hydroxy-3-methylcyclobutyl)acetamide]
IC50 [1]: < 10 µM | IC50 [2, 3]: 5.91 µM

CC(C)c1nn(CC(=O)Nc2ncncc2F)c(=O)cc1-c1cccc(Cl)c1 [Example 6, 2-(4-(3-chlorophenyl)-3-isopropyl-6-oxopyridazin-1(6H)-yl)-N-(5-fluoropyrimidin-4-yl)acetamide]
IC50 [1]: < 10 µM | IC50 [2, 3]: 0.535 µM

COc1cccc(-c2cc(=O)n(CC(=O)N[C@H]3C[C@@](C)(O)C3)nc2C(C)C)c1 [Example 7]
IC50 [1]: < 10 µM | IC50 [2, 3]: 7.06 µM

CC(C)c1nn(CC(=O)N[C@H]2C[C@@](C)(O)C2)c(=O)cc1-c1cccc(C#N)c1 [Example 8, 2-(4-(3-cyanophenyl)-3-isopropyl-6-oxopyridazin-1(6H)-yl)-N-(cis-3-hydroxy-3-methylcyclobutyl)acetamide]
IC50 [1]: 10 to 15 µM | IC50 [2, 3]: 24.5 µM

Cc1cccc(-c2cc(=O)n(CC(=O)N[C@H]3C[C@@](C)(O)C3)nc2C(C)C)c1 [Example 9, N-(cis-3-hydroxy-3-methylcyclobutyl)-2-(3-isopropyl-6-oxo-4-(m-tolyl)pyridazin-1(6H)-yl)acetamide]
IC50 [1]: < 10 µM | IC50 [2, 3]: 2.27 µM

CC(C)c1nn(CC(=O)N[C@H]2C[C@@](C)(O)C2)c(=O)cc1-c1ccc(F)cc1 [Example 10, 2-(4-(4-fluorophenyl)-3-isopropyl-6-oxopyridazin-1(6H)-yl)-N-(cis-3-hydroxy-3-methylcyclobutyl)acetamide]
IC50 [1]: 10 to 15 µM | IC50 [2, 3]: 50 µM

CC(C)c1nn(C2(C(=O)Nc3ncccn3)CC2)c(=O)cc1-c1cc(F)cc(F)c1 [Example 51, 1-[4-(3,5-difluorophenyl)-3-isopropyl-6-oxo-pyridazin-1-yl]-N-pyrimidin-2-yl-cyclopropanecarboxamide]
IC50 [2, 3]: 1.14 µM

CCc1nn(CC(=O)Nc2ncncc2F)c(=O)c(C)c1-c1cccc(F)c1 [Example 52, 2-[3-ethyl-4-(3-fluorophenyl)-5-methyl-6-oxopyridazin-1-yl]-N-(5-fluoropyrimidin-4-yl)acetamide]
IC50 [2, 3]: 4.36 µM

O=C(Cn1nc(C(F)F)c(-c2cc(F)cc(F)c2)cc1=O)Nc1ncc(F)cn1 [Example 53, 2-[3-(difluoromethyl)-4-(3,5-difluorophenyl)-6-oxopyridazin-1-yl]-N-(5-fluoropyrimidin-2-yl)acetamide]
IC50 [2, 3]: 2.77 µM

CC(C)c1nn(CC(=O)Nc2ncc(F)cn2)c(=O)cc1-c1cncc(F)c1 [Example 54, 2-[4-(5-fluoropyridin-3-yl)-6-oxo-3-propan-2-ylpyridazin-1-yl]-N-(5-fluoropyrimidin-2-yl)acetamide]
IC50 [2, 3]: 6.98 µM

CC(CF)c1nn(CC(=O)Nc2ncc(F)cn2)c(=O)cc1-c1cc(F)cc(F)c1 (stereo not shown) [Example 55, 2-[4-(3,5-difluorophenyl)-3-(1-fluoropropan-2-yl)-6-oxopyridazin-1-yl]-N-(5-fluoropyrimidin-2-yl)acetamide]
IC50 [2, 3]: 1.06 µM

O=C(Cn1nc(C2CCC2)c(-c2cc(F)cc(F)c2)cc1=O)Nc1ncc(F)cn1 [Example 56, 2-[3-cyclobutyl-4-(3,5-difluorophenyl)-6-oxopyridazin-1-yl]-N-(5-fluoropyrimidin-2-yl)acetamide]
IC50 [2, 3]: 0.713 µM

COc1nn(CC(=O)Nc2ncc(F)cn2)c(=O)cc1-c1cc(F)cc(F)c1 [Example 57, 2-[4-(3,5-difluorophenyl)-3-methoxy-6-oxopyridazin-1-yl]-N-(5-fluoropyrimidin-2-yl)acetamide]
IC50 ([2]; THP-1, read-out: Activity (µM)): 1.96 µM

— patent publication US20230348437A1, “COMPOUNDS, COMPOSITIONS AND METHODS” (Denali Therapeutics Inc., priority 2020, published 2023)
